Reference: PubChem BioAssay AID270 (DTP/NCI, 2004)
Several values for one entry are separate records, joined by “and”; a condition that tells them apart may be missing. Identical values can stand only once. Inconclusive results are not listed.

Test system: BDF1 mice, s.c. Lewis lung carcinoma, T/C %
Experiment: NCI In Vivo Anticancer Drug Screen. Data for tumor model Lewis Lung Carcinoma (subcutaneous) in B6D2F1 (BDF1) mice
Summary of the method: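 Transplanted tumors grown in mice; compound vs vehicle dosing; endpoint survival or tumor size; ratio T/C.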

[1] = endpoint: median survival time, dose: 11.0 mg/kg/injection, schedule: Q01DX001 (ip), vehicle: saline with Tween-80, higher = longer survival
[2] = endpoint: median survival time, dose: 30.0 mg/kg/injection, schedule: Q01DX001 (ip), vehicle: saline with Tween-80, higher = longer survival
[3] = endpoint: mean tumor weight, dose: 25.0 mg/kg/injection, schedule: Q01DX011 (ip), vehicle: saline, higher = larger tumour
[4] = endpoint: mean tumor weight, dose: 50.0 mg/kg/injection, schedule: Q01DX011 (ip), vehicle: saline, higher = larger tumour
[5] = endpoint: mean tumor weight, dose: 100.0 mg/kg/injection, schedule: Q01DX011 (ip), vehicle: saline, higher = larger tumour

Compound: O=NN(CCCl)C(=O)NC1CCC(C(=O)O)CC1 (centres undefined)
- T/C (endpoint: median survival time, dose: 3.0 mg/kg/injection, schedule: Q01DX001 (ip), vehicle: saline with Tween-80, higher = longer survival): 97 % of control and 117 % of control
- T/C (endpoint: median survival time, dose: 5.0 mg/kg/injection, schedule: Q01DX001 (ip), vehicle: saline with Tween-80, higher = longer survival): 116 % of control
- T/C (endpoint: median survival time, dose: 7.0 mg/kg/injection, schedule: Q01DX001 (ip), vehicle: saline with Tween-80, higher = longer survival): 110 % of control
- T/C (endpoint: median survival time, dose: 8.0 mg/kg/injection, schedule: Q01DX001 (ip), vehicle: saline with Tween-80, higher = longer survival): 124 % of control
- T/C [1]: 113 % of control
- T/C (endpoint: median survival time, dose: 12.0 mg/kg/injection, schedule: Q01DX001 (ip), vehicle: saline with Tween-80, higher = longer survival): 121 % of control
- T/C (endpoint: median survival time, dose: 13.0 mg/kg/injection, schedule: Q01DX001 (ip), vehicle: saline with Tween-80, higher = longer survival): 111 % of control and 288 % of control and 180 % of control
- T/C (endpoint: median survival time, dose: 17.0 mg/kg/injection, schedule: Q01DX001 (ip), vehicle: saline with Tween-80, higher = longer survival): 121 % of control
- T/C (endpoint: median survival time, dose: 20.0 mg/kg/injection, schedule: Q01DX001 (ip), vehicle: saline with Tween-80, higher = longer survival): 206 % of control [middle of 5 runs]
- T/C (endpoint: median survival time, dose: 26.0 mg/kg/injection, schedule: Q01DX001 (ip), vehicle: saline with Tween-80, higher = longer survival): 109 % of control
- T/C (endpoint: median survival time, dose: 27.0 mg/kg/injection, schedule: Q01DX001 (ip), vehicle: saline with Tween-80, higher = longer survival): 196 % of control
- T/C [2]: 228 % of control and 288 % of control and 219 % of control

Compound: NC(=S)N/N=C\c1nccc2c(N)cccc12
- T/C (endpoint: median survival time, dose: 6.25 mg/kg/injection, schedule: Q01DX009 (ip), vehicle: saline with Tween-80, higher = longer survival): 107 % of control and 110 % of control
- T/C (endpoint: median survival time, dose: 12.5 mg/kg/injection, schedule: Q01DX009 (ip), vehicle: saline with Tween-80, higher = longer survival): 94 % of control and 113 % of control
- T/C (endpoint: median survival time, dose: 25.0 mg/kg/injection, schedule: Q01DX009 (ip), vehicle: saline with Tween-80, higher = longer survival): 112 % of control and 117 % of control
- T/C (endpoint: median survival time, dose: 50.0 mg/kg/injection, schedule: Q01DX009 (ip), vehicle: saline with Tween-80, higher = longer survival): 105 % of control
- T/C (endpoint: median survival time, dose: 75.0 mg/kg/injection, schedule: Q01DX009 (ip), vehicle: saline with Tween-80, higher = longer survival): 110 % of control and 124 % of control

Compound: COc1ccc(/C=C/c2ccc3ccccc3[n+]2C)c(OC)c1OC
- T/C (endpoint: median survival time, dose: 0.31 mg/kg/injection, schedule: Q01DX009 (ip), vehicle: Klucel (hydroxypropylcellulose) (HPC), higher = longer survival): 117 % of control
- T/C (endpoint: median survival time, dose: 0.62 mg/kg/injection, schedule: Q01DX009 (ip), vehicle: Klucel (hydroxypropylcellulose) (HPC), higher = longer survival): 108 % of control
- T/C (endpoint: median survival time, dose: 1.25 mg/kg/injection, schedule: Q01DX009 (ip), vehicle: Klucel (hydroxypropylcellulose) (HPC), higher = longer survival): 107 % of control
- T/C (endpoint: median survival time, dose: 2.5 mg/kg/injection, schedule: Q01DX009 (ip), vehicle: Klucel (hydroxypropylcellulose) (HPC), higher = longer survival): 89 % of control and 92 % of control

Compound: O=C(O)c1cc(=O)cc(C(=O)O)o1
- T/C [3]: 66 % of control
- T/C [4]: 76 % of control
- T/C [5]: 77 % of control

Compound: NC(=O)c1csc(C2OC(CO)C(O)C2O)n1 (centres undefined)
- T/C (endpoint: median survival time, dose: 18.75 mg/kg/injection, schedule: Q01DX009 (ip), vehicle: water, higher = longer survival): 190 % of control and 235 % of control
- T/C (endpoint: median survival time, dose: 37.5 mg/kg/injection, schedule: Q01DX009 (ip), vehicle: water, higher = longer survival): 190 % of control and 235 % of control
- T/C (endpoint: median survival time, dose: 75.0 mg/kg/injection, schedule: Q01DX009 (ip), vehicle: water, higher = longer survival): 190 % of control and 235 % of control
- T/C (endpoint: median survival time, dose: 150.0 mg/kg/injection, schedule: Q01DX009 (ip), vehicle: water, higher = longer survival): 190 % of control and 235 % of control
- T/C (endpoint: median survival time, dose: 300.0 mg/kg/injection, schedule: Q01DX009 (ip), vehicle: water, higher = longer survival): 190 % of control and 235 % of control
- T/C (endpoint: median survival time, dose: 600.0 mg/kg/injection, schedule: Q01DX009 (ip), vehicle: water, higher = longer survival): 190 % of control and 235 % of control

Compound: NC(=S)c1cn(C2OC(CO)C(O)C2O)c2ncnc(N)c12 (centres undefined)
- T/C (endpoint: median survival time, dose: 0.31 mg/kg/injection, schedule: Q01DX009 (ip), vehicle: saline with Tween-80, higher = longer survival): 111 % of control
- T/C (endpoint: median survival time, dose: 0.62 mg/kg/injection, schedule: Q01DX009 (ip), vehicle: saline with Tween-80, higher = longer survival): 88 % of control
- T/C (endpoint: median survival time, dose: 2.5 mg/kg/injection, schedule: Q01DX009 (ip), vehicle: saline with Tween-80, higher = longer survival): 94 % of control and 101 % of control
- T/C (endpoint: median survival time, dose: 5.0 mg/kg/injection, schedule: Q01DX009 (ip), vehicle: saline with Tween-80, higher = longer survival): 101 % of control

Compound: CC(=O)NC(Cc1ccc(N(CCCl)CCCl)cc1)C(=O)O (centres undefined)
- T/C (endpoint: median survival time, dose: 3.13 mg/kg/injection, schedule: Q01DX009 (ip), vehicle: other, higher = longer survival): 104 % of control
- T/C (endpoint: median survival time, dose: 6.25 mg/kg/injection, schedule: Q01DX009 (ip), vehicle: other, higher = longer survival): 120 % of control
- T/C (endpoint: median survival time, dose: 25.0 mg/kg/injection, schedule: Q01DX009 (ip), vehicle: other, higher = longer survival): 114 % of control

Compound: CC(=O)NC1=C(N2CC2)C(=O)C(NC(C)=O)=C(N2CC2)C1=O
- T/C (endpoint: median survival time, dose: 0.12 mg/kg/injection, schedule: Q01DX009 (ip), vehicle: saline with Tween-80, higher = longer survival): 105 % of control and 111 % of control
- T/C (endpoint: median survival time, dose: 0.25 mg/kg/injection, schedule: Q01DX005 (ip), vehicle: saline with Tween-80, higher = longer survival): 102 % of control and 119 % of control
- T/C (endpoint: median survival time, dose: 0.25 mg/kg/injection, schedule: Q01DX009 (ip), vehicle: saline with Tween-80, higher = longer survival): 102 % of control and 112 % of control
- T/C (endpoint: median survival time, dose: 0.5 mg/kg/injection, schedule: Q01DX005 (ip), vehicle: saline with Tween-80, higher = longer survival): 98 % of control and 109 % of control
- T/C (endpoint: median survival time, dose: 0.5 mg/kg/injection, schedule: Q01DX009 (ip), vehicle: saline with Tween-80, higher = longer survival): 87 % of control and 105 % of control
- T/C (endpoint: median survival time, dose: 1.0 mg/kg/injection, schedule: Q01DX005 (ip), vehicle: saline with Tween-80, higher = longer survival): 115 % of control
- T/C (endpoint: median survival time, dose: 1.0 mg/kg/injection, schedule: Q01DX009 (ip), vehicle: saline with Tween-80, higher = longer survival): 123 % of control
- T/C (endpoint: median survival time, dose: 2.0 mg/kg/injection, schedule: Q01DX005 (ip), vehicle: saline with Tween-80, higher = longer survival): 94 % of control

Compound: CCCCOP(=O)(OCCCC)c1ccccc1
- T/C (endpoint: mean tumor weight, dose: 104.0 mg/kg/injection, schedule: Q01DX011 (ip), vehicle: other, higher = larger tumour): 93 % of control
- T/C (endpoint: mean tumor weight, dose: 233.0 mg/kg/injection, schedule: Q01DX011 (ip), vehicle: other, higher = larger tumour): 66 % of control

Compound: C[C@]12CCC(=O)C=C1CC[C@@H]1[C@@H]2[C@@H](O)C[C@@]2(C)[C@H]1CC[C@]2(O)C(=O)CF
- T/C (endpoint: mean tumor weight, dose: 3.13 mg/kg/injection, schedule: Q01DX011 (sc), vehicle: steriod suspending solution, higher = larger tumour): 70 % of control
- T/C (endpoint: mean tumor weight, dose: 6.25 mg/kg/injection, schedule: Q01DX011 (sc), vehicle: steriod suspending solution, higher = larger tumour): 68 % of control
- T/C (endpoint: mean tumor weight, dose: 12.5 mg/kg/injection, schedule: Q01DX011 (sc), vehicle: steriod suspending solution, higher = larger tumour): 65 % of control
- T/C (endpoint: mean tumor weight, dose: 25.0 mg/kg/injection, schedule: Q01DX011 (sc), vehicle: steriod suspending solution, higher = larger tumour): 33 % of control

Compound: O=NN(CCCl)C(=O)NC1CCS(=O)(=O)C1 (centres undefined) (tested in a mixture with another compound)
- T/C [1]: 88 % of control
- T/C (endpoint: median survival time, dose: 16.0 mg/kg/injection, schedule: Q01DX001 (ip), vehicle: saline with Tween-80, higher = longer survival): 100 % of control
- T/C [2]: 92 % of control

Compound: CS(=O)(=O)OCC(=O)NCCNC(=O)COS(C)(=O)=O
- T/C [3]: 98 % of control
- T/C [4]: 90 % of control
- T/C [5]: 94 % of control
- T/C (endpoint: mean tumor weight, dose: 200.0 mg/kg/injection, schedule: Q01DX011 (ip), vehicle: saline, higher = larger tumour): 82 % of control

Compound: CCN(CC)Cc1cc(Nc2c3ccccc3nc3cc(Cl)ccc23)ccc1O
- T/C (endpoint: mean tumor weight, dose: 40.0 mg/kg/injection, schedule: Q01DX011 (ip), vehicle: other, higher = larger tumour): 48 % of control
